Experiments:
[1] = tested on: rats; details: cited from earlier work
[2] = tested on: mice; details: cited from earlier work
[3] = tested on: male C57BL/6J mice; assay: Blood ethanol concentration after ethanol ingestion (headspace gas chromatography); format: in vivo; details: oral/intragastric 500 mg/kg (Example 1: 250 or 500 mg/kg) before 8 ml/kg ethanol (40% w/v); FIG. 1A
Protocol: Mice were randomly divided into a normal group (untreated group), a control group and a treatment group, with 8 mice in each group. […] The control group was given the same ethanol solution and corresponding distilled water, while the normal group was only given corresponding distilled water. At different time points of the experiment, the mice were anesthetized by intraperitoneal injection of 10% chloral hydrate (350 mg/kg body weight). Blood and liver tissues were extracted from each animal.
Eyeball blood samples (0.3 mL) were taken, each was put into an 8 mL headspace vial containing 1.2 mL 0.6 M perchloric acid, 0.5 mL trichloroacetic acid (10%) and 0.3 mL internal standard (160 mg/L tertiary butanol), and the concentrations of ethanol and acetaldehyde were determined with headspace gas chromatography.
Blood samples were collected from the infraorbital venous plexus at different time points (as indicated) after the ethanol administration. Blood ethanol (FIG. 1A) and acetaldehyde (FIG. 1B) levels were determined. Each group contained 6-8 mice. Data are presented as the mean±SD.

[4] = cited from earlier work
[5] = tested on: mice; details: intraperitoneal injection of theanine, oral administration of ethanol; cited from earlier work
[6] = tested on: glutamate receptors; details: not as great as that of L-glutamic acid; cited from earlier work
[7] = after oral administration; cited from earlier work
[8] = tested on: male C57BL/6J mice; assay: Liver MDA and SOD, oxidative damage caused by acute alcohol ingestion; format: in vivo; details: 500 mg/kg intragastric 15 min prior to 8 ml/kg ethanol (40% w/v), liver 6 hours after alcohol; for MDA content in the liver: FIG. 3A; for SOD activity in liver: FIG. 3B
[9] = tested on: male C57BL/6J mice; assay: Liver triglyceride (TG) level, lipid metabolism in acute alcoholic liver damage; format: in vivo; details: 500 mg/kg pretreatment, alcohol-loaded mice, vs alcohol exposure alone; FIG. 4A
[10] = tested on: C57BL/6J mice; details: cited from earlier work
[11] = tested on: male C57BL/6J mice; assay: Blood acetaldehyde concentration after ethanol ingestion (headspace gas chromatography); format: in vivo; details: FIG. 1B
[12] = tested on: male C57BL/6J mice; assay: Plasma AST and ALT, acute alcohol-induced hepatotoxicity; format: in vivo; details: 500 mg/kg intragastric before 8 ml/kg ethanol (40% w/v), blood 6 hours after alcohol, vs model group
[13] = tested on: male C57BL/6J mice; assay: Serum very low density lipoprotein (VLDL), lipid metabolism in acute alcoholic liver damage; format: in vivo; details: 500 mg/kg pretreatment, alcohol-loaded mice, vs alcohol exposure alone; FIG. 4B
[14] = tested on: cells; details: cited from earlier work

Question: With `O=C1c2c(O)cc(O)cc2O[C@H](c2cc(O)c(O)c(O)c2)[C@H]1O` [DHM, Dihydromyricetin] as the compound, how does the “muscle relaxation induced by alcohol” value [1] read?
Answer: prevent muscle relaxation

Question: What about the blood alcohol levels [2] of the same compound?
Answer: reduce blood alcohol levels

Question: And the ethanol in blood [3]?
Answer: significantly reduce

Question: Which results are given for `N[C@@H](CS)C(=O)O` [L-cysteine]?
Answer: stress and anxiety ([4]; dose of 600 mg): relieved; self-assessed severity of the hangover, nausea and headache ([4]; dose of 1200 mg): improved

Question: With `CCNC(=O)CC[C@H](N)C(=O)O` [L-theanine] as the compound, how does the ethanol in blood [3] read?
Answer: significantly reduce

Question: What about the “effect with respect to alcoholic liver injury” value [5] of the same compound?
Answer: protective effect

Question: And the “binding affinity to glutamate receptors” value [6]?
Answer: weak

Question: What about the “time to cross the blood-brain barrier” value [7] of the same compound?
Answer: ≤ 30 min

Question: For `CC(=O)N[C@@H](CS)C(=O)O` [NAC, N-acetyl-cysteine], which ethanol in blood [3] is on record?
Answer: significantly reduce

Question: What about the “MDA content in the liver” value [8] of the same compound?
Answer: significantly reduce

Question: And the “SOD activity in liver” value [8]?
Answer: increase

Question: Which “liver TG level” value [9] does the source give for `NC(=O)C1=CN([C@@H]2O[C@H](COP(=O)(O)OP(=O)(O)OC[C@H]3O[C@@H](n4cnc5c(N)ncnc54)C(O)C3O)C(O)C2O)C=CC1` (some centres unmarked) [NADH, nicotinamide adenine dinucleotide (NAD)+hydrogen (H)] here?
Answer: decreased

Question: What about the ethanol in blood [3] of the same compound?
Answer: significantly reduce

Question: What about the “liver NAD+/NADH ratio” value [10] of the same compound?
Answer: significantly increased

Question: And the “NAD+ content in liver, blood, brain and fat” value ([10]; intraperitoneal injection)?
Answer: significantly increased

Question: What about the “MDA content in the liver” value [8] of the same compound?
Answer: significantly reduce

Question: And the “SOD activity in liver” value [8]?
Answer: increase

Question: What about the “acetaldehyde in the blood” value ([11]; after two hours after ethanol administration) of the same compound?
Answer: significantly reduced

Question: What about the blood acetaldehyde levels ([11]; between 30 minutes and two hours after ethanol administration) of the same compound?
Answer: significantly increased

Question: What about the “plasma AST level” value ([12]; FIG. 2A) of the same compound?
Answer: significantly reduce

Question: What about the “plasma ALT level” value ([12]; FIG. 2B) of the same compound?
Answer: significantly reduce

Question: What about the “serum VLDL level” value [13] of the same compound?
Answer: decreased

Question: And the “cell death caused by NAD+-depleting genotoxins” value ([14]; NADH-treated cells, e.g. hydrogen peroxide)?
Answer: resistant to cell death

Question: What about the “NAD+ increase compared to nicotinamide mononucelotide (NMN)” value ([14]; at the same concentrations) of the same compound?
Answer: greater NAD+ increases

Question: And the “apoptosis markers in cells” value [14]?
Answer: did not induce apoptosis markers

— patent US11458155B1, “Active ingredient complexes, compositions and methods for hangover relief and to ameliorate alcohol-induced liver damage” (FULGENT LIFE INC., priority 2021, dated 2022)
